# Reference: patent US11285172B2, “Method for treating inflammatory diseases” (MacKay Memorial Hospital, priority 2019, dated 2022)
# Where a name gives a salt, the structure may show the parent alone.
# System: FANCs internalization in HAECs
# Assay: Endocytic pathway inhibition: FANC internalization in HAECs after endocytosis inhibitor pre-treatment (flow cytometry, confocal)
# Type: cell-based, human
# Settings: for effect on FANCs internalization: complete medium, inhibitor pre-treatment 45 min (filipin 30 min); for effect on FANCs internalization / decrement of FANCs internalization compared to FANCs control: then FANCs 80 min; for decrement of FANCs internalization compared to FANCs control: 45 min inhibitor pre-treatment
# Method: In certain experiments, HAECs were treated by endocytosis inhibitors to inhibit endocytic pathways. Endocytosis inhibitors are chlorpromazine hydrochloride (10 μg/ml, C8138), filipin (10 μg/ml, F9765), amiloride (10 μmol/L A7410), and genistein (50 μmol/L G6649; all obtained from Sigma-Aldrich).
# Cells were seeded onto 2% gelatin-coated glass coverslips and incubated for 24 hours and applied to FANCs treatments. Cells were fixed with 1% paraformaldehyde, washed with PBS, then blocked with 5% bovine serum albumin (BSA) for 30 minutes. Then the cell culture was incubated with primary antibodies against VE-cadherin at 37° C. for 2 hours, followed by application of FITC-conjugated secondary antibody (Chemicon, Temecula, Calif., USA) for 50 minutes under room temperature. After one hour for the pre-treatment by above-mentioned endocytosis inhibitor, HAECs were incubated with FANCs for 80 minutes followed by washed with PBS and fixed with 1% paraformaldehyde. Afterwards, cells were stained with bisbenzamide (18.7 μmol/L) for 15 minutes and then washed with PBS buffer. Then, the cells were mounted by using 60% glycerol (v/v) and examined by using a confocal microscope (Leica TCS SP5, Leica, Germany) with a 40× oil objective/1.25 aperture. The images were captured under room temperature.
# After 45 minutes of inhibitors pre-treatment (except 30 minutes of filipin treatment), FANCs were added and the incubation continued for additional 80 minutes. Thereafter, cells were subject to flow cytometry (FIGS. 1A-1D). […] However, in low serum or no serum medium, internalization of FANCs was blocked by chlorpromazine hydrochloride (compared to FANCs control, 60% of decrement at 1% FBS medium and 51% of decrement at no serum medium; FIGS. 1B and 1C).
Structure (SMILES),effect on FANCs internalization (flow cytometry),"decrement of FANCs internalization compared to FANCs control (1% FBS medium, flow cytometry, HAECs)","punctate fluorescence signals of FANCs (confocal microscopy) (confocal microscopy, HAECs, FANCs 80 min after inhibitor pre-treatment)","decrement of FANCs internalization compared to FANCs control (no serum medium, flow cytometry, HAECs)","FANC internalization, dose dependence (only in low serum and no serum supplement culture environments, flow cytometry)"
O=c1c(-c2ccc(O)cc2)coc2cc(O)cc(O)c12 [genistein],slighter effects,,,,
N=C(N)NC(=O)c1nc(Cl)c(N)nc1N [amiloride],slighter effects,,,,
CCCCC[C@@H](O)[C@H]1C(=O)O[C@H](C)[C@@H](O)/C=C/C=C/C=C/C=C/C=C(\C)[C@@H](O)C[C@H](O)C[C@H](O)C[C@H](O)C[C@H](O)C[C@H](O)C[C@@H]1O [filipin],slighter effects,,,,
CN(C)CCCN1c2ccccc2Sc2ccc(Cl)cc21 [chlorpromazine hydrochloride],slighter effects,60%,down-regulated,51%,attenuated FANC internalization in a dose-dependent manner
